Results: ChEMBL document CHEMBL1122538, “Functional group contributions to drug-receptor interactions” (J Med Chem, 1984)

Assay: Binding energy by using the equation deltaG obsd = -RT ln KD
Type: ADME
Molecule `C[C@@H]1O[C@@H](O[C@H]2C[C@@H](O)[C@]3(CO)[C@H]4[C@H](O)C[C@]5(C)[C@@H](C6=CC(=O)OC6)CC[C@]5(O)[C@@H]4CC[C@]3(O)C2)[C@H](O)[C@H](O)[C@H]1O` [OUABAIN] has a Binding energy of 11.5 kcal/mol. For `CN1CCC(=C2c3ccccc3CCc3sccc32)CC1` [PIZOTYLINE], the Binding energy was 13 kcal/mol. With `CC12CCC(CC1=O)C2(C)C` (stereo not drawn) [CAMPHOR] the Binding energy was 11.4 kcal/mol. `O=C1CCCN1CC#CCN1CCCC1` [OXOTREMORINE] showed a Binding energy of 11.7 kcal/mol. Work on `COc1ccc(CCN2CCC(Nc3nc4ccccc4n3Cc3ccc(F)cc3)CC2)cc1` [ASTEMIZOLE] yielded a Binding energy of 11.3 kcal/mol. In the case of `CCCCC1C(=O)N(c2ccccc2)N(c2ccccc2)C1=O` [PHENYLBUTAZONE], the Binding energy is reported as 7.3 kcal/mol. Work on `O=c1cccc2n1C[C@@H]1CNC[C@H]2C1` [CYTISINICLINE] yielded a Binding energy of 12.1 kcal/mol. `CC(N)Cc1ccccc1` (stereo not drawn) [AMPHETAMINE] showed a Binding energy of 6.8 kcal/mol. With `Cc1cccc(C)c1N=C1NCCCS1` [XYLAZINE] the Binding energy was 11.3 kcal/mol. `O=C(c1ccc(F)cc1)C1CCN(CCn2c(=O)[nH]c3ccccc3c2=O)CC1` [KETANSERIN] showed a Binding energy of 12.8 kcal/mol. With `Nc1nc(N)c2nc(Cc3ccccc3)cnc2n1` the Binding energy was 12.3 kcal/mol. With `O=P(O)(O)/C=C/CCO` the Binding energy was 4.1 kcal/mol. `O=C1Nc2ccc(Cl)cc2C(c2ccccc2Cl)=NC1O` (stereo not drawn) [LORAZEPAM] gave a Binding energy of 11.6 kcal/mol. For `CC(=O)CC(=O)C(=O)O`, the Binding energy was 9.1 kcal/mol. In the case of `CC(=O)[C@H]1CC[C@H]2[C@@H]3CCC4=CC(=O)CC[C@]4(C)[C@H]3CC[C@]12C` [PROGESTERONE], the Binding energy is reported as 10.5 kcal/mol. `O=C(O)Cc1cc(I)c(Oc2ccc(O)c(I)c2)c(I)c1` [TIRATRICOL] showed a Binding energy of 9.3 kcal/mol. For `CNCCCC1c2ccccc2C=Cc2ccccc21` [PROTRIPTYLINE], the Binding energy was 10.8 kcal/mol. `CCC(C)CN` (stereo not drawn) gave a Binding energy of 2.8 kcal/mol. In the case of `O=C1NC(=O)C(c2ccccc2)(c2ccccc2)N1` [PHENYTOIN], the Binding energy is reported as 11.2 kcal/mol. For `N=C(N)N/N=C/c1c(Cl)cccc1Cl` [GUANABENZ], the Binding energy was 12.3 kcal/mol. Molecule `CCC1(CC)C(=O)NC(=O)N(C)C1=O` [METHARBITAL] has a Binding energy of 6.8 kcal/mol. For `O=C1CC(=O)N([C@@H]2O[C@H](COP(=O)(O)O)[C@@H](O)[C@H]2O)C(=O)N1`, the Binding energy was 15.1 kcal/mol. In the case of `COc1cc(Cc2cnc(N)nc2N)cc(OC)c1OC` [TRIMETHOPRIM], the Binding energy is reported as 11.5 kcal/mol. `Cc1csc(Cl)c1NC1=NCCN1` [TIAMENIDINE] gave a Binding energy of 11.8 kcal/mol. `O=C(O)Cc1ccccc1Nc1c(Cl)cccc1Cl` [DICLOFENAC] showed a Binding energy of 9.6 kcal/mol. `COC(=O)[C@@H]1[C@H]2C[C@H]3c4[nH]c5ccccc5c4CCN3C[C@@H]2CC[C@@H]1O` [YOHIMBINE] gave a Binding energy of 11.9 kcal/mol. BIBROCATHOL gave a Binding energy of 10.7 kcal/mol. Molecule `CN1C(=O)CN=C(c2ccccc2)c2cc(Cl)ccc21` [DIAZEPAM] has a Binding energy of 11.5 kcal/mol. With `O=C(O)Cc1ccccc1Oc1ccc(Cl)c(O)c1Cl` the Binding energy was 8.7 kcal/mol. Molecule `CNC(=O)Oc1cccc2c1OC(C)(C)C2` [CARBOFURAN] has a Binding energy of 4.6 kcal/mol. `CN1C[C@H](CNC(=O)OCc2ccccc2)C[C@@H]2c3cccc4c3c(cn4C)C[C@H]21` [METERGOLINE] showed a Binding energy of 13 kcal/mol. For `Cc1ccc(N(CC2=NCCN2)c2cccc(O)c2)cc1` [PHENTOLAMINE], the Binding energy was 11.9 kcal/mol. For `CC(C)Cc1cnc2nc(N)nc(N)c2n1`, the Binding energy was 12.3 kcal/mol. With `Clc1cccc(Cl)c1N=C1NCCN1` [CLONIDINE] the Binding energy was 12.3 kcal/mol. In the case of `O=P(O)(O)OC[C@H]1O[C@](O)(CO)[C@@H](O)[C@@H]1O`, the Binding energy is reported as 5.7 kcal/mol. `CN1[C@@H]2CC[C@H]1C[C@@H](OC(c1ccccc1)c1ccccc1)C2` [BENZTROPINE] gave a Binding energy of 12.6 kcal/mol. Work on `CC(=O)O[C@]1(C(C)=O)CC[C@H]2[C@@H]3C[C@H](C)C4=CC(=O)CC[C@]4(C)[C@H]3CC[C@@]21C` [MEDROXYPROGESTERONE ACETATE] yielded a Binding energy of 10.2 kcal/mol. For `CN1CCN2c3ccccc3Cc3ccccc3C2C1` (stereo not drawn) [MIANSERIN], the Binding energy was 12.5 kcal/mol. For `CCC(=O)C1(c2cccc(O)c2)CCN(C)CC1` [KETOBEMIDONE], the Binding energy was 10.8 kcal/mol. Work on `O=C(O)CCc1ccccc1` [PHENYL PROPIONIC ACID] yielded a Binding energy of 5.5 kcal/mol. Molecule `C(=C\c1ccccc1)/CN1CCN(C(c2ccccc2)c2ccccc2)CC1` [CINNARIZINE] has a Binding energy of 8.4 kcal/mol. `CCCC(CCC)C(=O)O` [VALPROIC ACID] gave a Binding energy of 6.1 kcal/mol. For `O=P(O)(O)O[C@H]1OC[C@@H](O)[C@H](O)[C@H]1O`, the Binding energy was 6.2 kcal/mol. Molecule `CC(C)(C)NC[C@H](O)COc1nsnc1N1CCOCC1` [TIMOLOL] has a Binding energy of 13 kcal/mol. For `O=C(O)c1ccc(C(=O)O)c(C(=O)O)c1`, the Binding energy was 5.2 kcal/mol. In the case of `CCc1nc(N)nc(N)c1-c1ccc(Cl)cc1` [PYRIMETHAMINE], the Binding energy is reported as 9.7 kcal/mol. With `CN1[C@@H]2CC[C@H]1C[C@@H](OC(=O)C(CO)c1ccccc1)C2` (stereo partly drawn) [ATROPINE] the Binding energy was 12.8 kcal/mol. `CCCCC[C@H](O)/C=C/[C@H]1[C@H](O)CC(=O)[C@@H]1CCCCCCC(=O)O` [ALPROSTADIL] gave a Binding energy of 11.2 kcal/mol. In the case of `Cc1ccc(F)cc1NC1=NCCN1` [FLUTONIDINE], the Binding energy is reported as 11.4 kcal/mol. With `CC(Cc1ccccc1)NCCC(c1ccccc1)c1ccccc1` (stereo not drawn) [PRENYLAMINE] the Binding energy was 8.2 kcal/mol. `CC(=O)OC(Cc1ccc(C=O)cc1)c1ccc(C=O)cc1` (stereo not drawn) showed a Binding energy of 6.4 kcal/mol. In the case of `CN1CCC(=C2c3ccccc3C=Cc3ccccc32)CC1` [CYPROHEPTADINE], the Binding energy is reported as 12.8 kcal/mol. Molecule `NC[C@H](O)c1ccc(O)c(O)c1` [NOREPINEPHRINE] has a Binding energy of 12.1 kcal/mol. With `COC1C2CCN(CC3CC3)C1Cc1ccc(O)cc12` (stereo not drawn) the Binding energy was 12.2 kcal/mol. Work on `Oc1ncnc2[nH]ncc12` [ALLOPURINOL] yielded a Binding energy of 12.5 kcal/mol. Molecule `C[C@@H]1C[C@H]2[C@@H]3CCC4=CC(=O)C=C[C@]4(C)[C@@]3(F)[C@@H](O)C[C@]2(C)[C@@]1(O)C(=O)CO` [DEXAMETHASONE] has a Binding energy of 10.9 kcal/mol. For `NC(CO)Cc1ccccc1` (stereo not drawn), the Binding energy was 7.1 kcal/mol. With `C[C@]12CC[C@@H]3c4ccc(O)cc4CC[C@H]3[C@@H]1CC[C@@H]2O` [ESTRADIOL] the Binding energy was 13.2 kcal/mol. With `Cc1ccc(/C(=C\CN2CCCC2)c2ccccn2)cc1` [TRIPROLIDINE] the Binding energy was 13.6 kcal/mol. With `C[N+](C)(C)CCOC(N)=O.[Cl-]` [CARBACHOL] the Binding energy was 10.7 kcal/mol. Work on `N/C=C(\OP(=O)(O)O)C(=O)O` yielded a Binding energy of 10.5 kcal/mol. Work on `N=C(N)NC(=O)Cc1c(Cl)cccc1Cl` [GUANFACINE] yielded a Binding energy of 11.9 kcal/mol. Work on `NCCc1ccccc1` [PHENETHYLAMINE] yielded a Binding energy of 5.5 kcal/mol. `O=C(O)CCCC[C@@H]1SC[C@@H]2NC(=O)N[C@@H]21` [BIOTIN] gave a Binding energy of 20.5 kcal/mol. In the case of `O=C(O)C(=O)O` [OXALIC ACID], the Binding energy is reported as 7.8 kcal/mol. With `O=P(O)(O)C#CCCO` the Binding energy was 3.4 kcal/mol. `O=C1CCC(c2ccccc2)(C2CCN(Cc3ccccc3)CC2)C(=O)N1` (stereo not drawn) [BENZETIMIDE] gave a Binding energy of 12 kcal/mol. `CC(=O)OCC[N+](C)(C)C` [ACETYLCHOLINE] gave a Binding energy of 11.1 kcal/mol. `CNCCC(Oc1ccccc1OC)c1ccccc1` (stereo not drawn) [NISOXETINE] showed a Binding energy of 11.5 kcal/mol. With `ClC1=C(Cl)[C@]2(Cl)[C@@H]3[C@@H]4C[C@@H]([C@H]5O[C@@H]45)[C@@H]3[C@@]1(Cl)C2(Cl)Cl` [DIELDRIN] the Binding energy was 6.1 kcal/mol. `Nc1ccn([C@@H]2O[C@H](COP(=O)(O)O)[C@@H](O)[C@H]2O)c(=O)n1` showed a Binding energy of 5.9 kcal/mol. Work on `CCCCC[C@H](O)/C=C/[C@H]1[C@H](O)CC(=O)[C@@H]1C/C=C\CCCC(=O)O` [DINOPROSTONE] yielded a Binding energy of 11.5 kcal/mol. `Cc1cc(C(C)(C)C)c(O)c(C)c1CC1=NCCN1` [OXYMETAZOLINE] showed a Binding energy of 12.2 kcal/mol. With `NC(=O)C(N)Cc1ccccc1` (stereo not drawn) the Binding energy was 6.1 kcal/mol. Molecule `O=C(O)COP(=O)(O)O` [PHOSPHOGLYCOLIC ACID] has a Binding energy of 8.7 kcal/mol. Work on `O=C(O)C(COP(=O)(O)O)[C@H](O)[C@H](O)COP(=O)(O)O` (stereo partly drawn) yielded a Binding energy of 8.2 kcal/mol. Work on `N[C@@H](Cc1cc(I)c(Oc2cc(I)c(O)c(I)c2)c(I)c1)C(=O)O` [LEVOTHYROXINE] yielded a Binding energy of 10.3 kcal/mol. Molecule `Cc1ncc(CO)c(CN[C@@H](C)C(=O)O)c1O` has a Binding energy of 9.2 kcal/mol. With `O=C(CCCN1CCC(n2c(O)nc3ccccc32)CC1)c1ccc(F)cc1` [BENPERIDOL] the Binding energy was 12.2 kcal/mol. `CC(C)NCC(O)COc1cccc2ccccc12` (stereo not drawn) [PROPRANOLOL] gave a Binding energy of 12.8 kcal/mol. `c1ccc2c(CC3=NCCN3)cccc2c1` [NAPHAZOLINE] gave a Binding energy of 11.9 kcal/mol. Molecule `CNC(=O)Oc1cccc2ccccc12` [CARBARIL] has a Binding energy of 6.4 kcal/mol. For `O=C(NC1CCN(CCc2c[nH]c3ccccc23)CC1)c1ccccc1` [INDORAMIN], the Binding energy was 11.5 kcal/mol.
